Results reported in patent publication US8524729B2, “Cinnamoyl derivatives and use thereof” (Sumitomo Chemical Company, Limited, priority 2003, dated 2013).

test: Inhibition of the ability of TGF-β to promote transcription of a Type I collagen gene, COL-Luc luciferase reporter in normal human fetal skin fibroblasts; type: cell-based; conditions: final concentration 1 μM; TGF-β added after one hour; 40 hours; normal human fetal skin fibroblast transfected with COL-Luc and pCMV-β-gal; read-out: Inhibition percentage
Protocol: 1×10^8 cells of a normal human fetal skin fibroblast (Clontech, catalogue No. CC-2509) were cultured at 37° C. overnight under 5% CO2 atmosphere. After the cultured cells were washed with a sodium phosphate buffer (hereinafter, referred to as PBS) twice, 3 ml of PBS was added thereto and the cells were scraped away the wall of a vessel using a cell scraper (Nalgen, catalogue No. 179693). The scraped cells were collected by centrifugation (1,500 rpm, 4° C., 15 min), and these were suspended in 20 ml of PBS and centrifuged again. To the resulting precipitates were added 11 ml of Solution 2 and 4.8 μl of pronase of DNA Extraction Kit (Stratagene, catalogue No. 200600). After shaken at 60° C. for 1 hour, the resulting mixture was allowed to stand in ice for 10 minutes. Then, 4 ml of Solution 3 of the kit was added to the mixture. After mixed, the mixture was allowed to stand in ice for 5 minutes and then centrifuged (3,000 rpm, 4° C., 15 min) to recover a supernatant. To the recovered supernatant was added 2 μl of RNase per 1 ml of the supernatant and the mixture was allowed to stand at 37° C. for 15 minutes. To the mixture was added 2-fold volume of ethanol. After mixed, a white thread-like substance (genomic DNA) appeared and the substance was recovered. The recovered genomic DNA was washed with 70% ethanol and then air-dried. The air-dried genomic DNA was dissolved in 500 μl of 10 mM Tris-HCl, 1 mM EDTA (pH 8.0) (hereinafter, referred to as TE).
The resulting genomic DNA solution (the amount equivalent to 1 μg of genomic DNA), each 1 μl ([…]) of an oligonucleotide consisting of the nucleotide sequence represented by SEQ ID No:1 and an oligonucleotide consisting of the nucleotide sequence represented by SEQ ID No: 2, 29 μL of distilled water, 5 μl of the buffer attached to TaKaRa LA Taq (TAKARA SHUZO, catalogue No. RR002A), 5 μL of a Mg^2+ solution, 5 μL of a dNTP mixture and 0.5 μl of TaKaRa LA Taq (TAKARA SHUZO, catalogue No. RR002A) were mixed. After the resulting mixed solution was incubated at 94° C. for 5 minutes, the mixed solution was subjected to 30 cycles, in which one cycle consists of incubation at 94° C. for 1 minute, at 60° C. for 1 minute and then at 72° C. for 1 minute. The mixed solution was electrophoresed on a 2% agarose gel to recover about 0.5 kb of a DNA. The recovered DNA was treated with phenol/chloroform and then precipitated with ethanol to recover the DNA. The resulting DNA was dissolved in ultrapure water. To this solution were added 2.5 μl of NheI and 2.5 μl of HindIII, and then incubated at 37° C. for 3 hours. Then, the solution was electrophoresed on a 2% agarose gel to recover […] of a DNA. The recovered DNA was precipitated with ethanol to recover again the DNA (hereinafter, referred to as the collagen promoter DNA). […]

Compound	inhibition at 1 µM
Cc1cc(O)c(C(=O)C=Cc2ccc(OC(F)(F)F)c(Cl)c2)c(=O)[nH]1 [Compound No. (3a-32), 4-hydroxy-3-[3-[3-chloro-4-(trifluoromethoxy)phenyl]-1-oxo-2-propenyl]-6-methyl-2(1H)-pyridinone]	≥ 70%
COc1c(C(=O)C=Cc2ccc(OC(F)(F)F)c(Cl)c2)c(=O)oc2ccccc12 [Compound No. (2c-17), 4-methoxy-3-[3-[3-chloro-4-(trifluoromethoxy)phenyl]-1-oxo-2-propenyl]-2H-1-benzopyran-2-one]	≥ 70%
COC1=C(C(=O)C=Cc2ccc(OC(F)(F)F)c(Cl)c2)COC(C)=C1 [Compound No. (2a-17), 4-methoxy-3-[3-[3-chloro-4-(trifluoromethoxy)phenyl]-1-oxo-2-propenyl]-6-methyl-2H-pyran]	≥ 70%
O=C(C=Cc1ccc(OC(F)(F)F)c(Cl)c1)c1c(O)c2ccccc2[nH]c1=O [Compound No. (3c-32), 4-hydroxy-3-[3-[3-chloro-4-(trifluoromethoxy)phenyl]-1-oxo-2-propenyl]-2(1H)-quinolinone]	≥ 70%
